Structures are written as SMILES. pIC50: −log10 of the molar value. Converted amounts (≈) assume the structure as drawn.

Series [1] deals with HCC1569 cells. The series is described as follows: Cytostatic activity, CTG assay (HCC1569). To be noted: 5 days. It is filed as cell-based. The method, then:
Biological test example 2. Cytostatic activity of compounds of the present disclosure
CTG assay (HCC1569) was used to verify the biological activity of some of the example compounds of the present disclosure.
HCC1569 cells were purchased from ATCC (Cat. No.: CRL-2330) and cultured in a 37°C, 5% CO2 cell culture incubator. HCC1569 complete medium: RPMI-1640 liquid medium (Cat. No.: Gibico 11875-093), 20% FBS (Cat. No.: Gibico 10099-141), 1% Pen Strep (Cat. No.: Gibico 15070-063).
HCC1569 cells in a 75 cm^2 culture flask were digested with 2 mL of trypsin for 2-3 min, and then neutralized with 2 mL of 1640 complete medium. The mixture was centrifuged at 1200 rpm for 5 minutes. Cells were resuspended using 4 mL of 1640 complete medium. 500 µL of cell suspension was taken for cell counting using Vi-CELL-XR cell counter.
Using a Multidrop instrument, the HCC1569 cells were seeded in a 384-well plate at a density of 1000 cells per well (50 µL 1640 Growth Media) and administrated 24 hours later.
Using an ultra-micro pipette, the test compound (concentration: 3.33 mM, dissolved in DMSO) was diluted with 10 µM as the highest starting concentration, and then sequentially diluted in 10 gradients at a ratio of 1:3 (10000 nM, 3333 nM, 1111 nM, 370 nM, 123 nM, 41 nM, 13.7 nM, 4.6 nM, 1.5 nM, 0.5 nM) for administration treatment, with two duplicate wells for each concentration; 14 wells for positive and negative controls were set, with the positive control being the duplicate wells of 10 µM positive compound and the negative control being the duplicate wells of DMSO.
After the administration was completed, the cells were placed in a 37°C incubator for further culture for 5 days. After 5 days, 25 µL of CTG buffer was added to each well for CTG assay detection, and analyzed using a microplate reader. CTG readings were analyzed.
a = CTG value (highest concentration), b = CTG value (blank well), x = CTG value(test well).
IC50 was calculated using GraphPad PRISM 8.
Log10 (A compound concentration) was used for statistical calculation. (2) The data were input into GraphPad PRISM 8, and Analysis was selected. (3) Nonlinear regression (curve fit) was selected. (4) Log (inhibitor) vs. response-Variable slope was selected. (5) The calculation formula was selected, and the calculation was carried out according to the following formula: Y = Bottom + (Top-Bottom)/(1+10^((LogIC50-X)*HillSlope)), X: logarithm of dose or concentration, Y: response value, Top and Bottom: peak and bottom values. (6) The data were fitted to obtain IC50 values. (7) The fitting conditions were adjusted according to the specific data. Appropriate Constraint conditions were adjusted for Bottom, Top, and HillSlope. The curve that best fits the actual situation has been reached.

A short description of series [2]: Metabolic stability in mouse liver microsomes.
Protocol: The concentration of the parent drug in the incubation system was detected by LC/MS/MS, and the intrinsic clearance rate of the test compound in the microsome system was calculated to evaluate its stability. The test concentration of the test compound and the positive control compound was 1 µM. • 1. 25 µL of NADPH (10 mM) or phosphate buffered saline (100 mM, pH = 7.4) was transferred to the liver microsome incubation system, and 2 µL of the test sample or verapamil at a concentration of 200 µM was added. Samples supplemented with NADPH were prepared in duplicate, and NADPH-negative samples were prepared in singlicate. • 2. 30 µL of the suspension was taken at 0.5, 5, 15, 30, and 60 minutes, respectively. The reaction was stopped by adding 180 µL of acetonitrile containing internal standard and vortexed for 10 min. • 3. […] 100 µL of the supernatant was transferred to the sample injection plate, and 100 µL of pure water was added and mixed well for UPLC-MS/MS analysis. • 4. All data calculations were performed using Microsoft Excel software. Peak areas were detected by extracting ion chromatograms. The in vitro half-life (t1/2) of the parent drug was detected by linear fitting the natural logarithm of the parent drug elimination percentage with time.
The in vitro clearance rate Clint (unit: µL/min/mg) was calculated: in vitro CLint = kV/N; V = incubation volume per well (400 µL); V = incubation volume per well (400 µL).
For series [3], the target named is T1, PKMYT1 enzyme (Homo sapiens, UniProt Q99640).
T1 construct: purchased Thermo Scientific A33387
T1 sequence (Q99640 1-499): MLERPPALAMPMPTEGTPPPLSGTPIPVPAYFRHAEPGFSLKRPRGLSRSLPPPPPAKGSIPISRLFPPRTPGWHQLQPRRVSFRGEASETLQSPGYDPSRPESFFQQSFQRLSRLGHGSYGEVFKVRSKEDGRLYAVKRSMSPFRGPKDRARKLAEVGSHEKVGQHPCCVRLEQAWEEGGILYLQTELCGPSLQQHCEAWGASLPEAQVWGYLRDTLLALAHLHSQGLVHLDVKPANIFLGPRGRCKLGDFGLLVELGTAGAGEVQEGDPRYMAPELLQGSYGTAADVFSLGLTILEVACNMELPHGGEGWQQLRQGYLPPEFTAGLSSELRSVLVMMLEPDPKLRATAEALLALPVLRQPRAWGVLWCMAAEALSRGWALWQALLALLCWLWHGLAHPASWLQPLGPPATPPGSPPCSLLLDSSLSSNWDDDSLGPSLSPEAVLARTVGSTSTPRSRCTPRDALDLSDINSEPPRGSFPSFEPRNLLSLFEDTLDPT
Nature of the series: PKMYT1 enzyme inhibition activity, ADP-GLO method. It is filed as biochemical. Conditions: PKMYT1 enzyme 10 nM, ATP 5 µM, 37°C 90 minutes; read-out: ADP-GLO IC50.
Protocol: Enzyme inhibition activity of compounds of the present disclosure
The enzyme activity of some of the example compounds was verified using the ADP-GLO method.
PKMYT1 enzyme protein was purchased from Thermo Scientific (Cat. No.: A33387), and the ADP-GLO kit was purchased from Promega (Cat. No.: V9103).
PKMYT1 enzyme activity reaction buffer: 70 mM HEPES, 3 mM MgCl2, 3 mM MnCl2, 50 µg mL-1PEG20000, 3 µM sodium orthovanadate, 1.2 mM DTT.
The reaction plate with the added compounds was centrifuged at 2500 rpm for 1 minute.
The prepared enzyme solution was added to the reaction plate, 5 µL per well, and the final concentration of enzyme was 10 nM. The reaction plate was centrifuged at 1000 rpm for 1 minute. The reaction plate was placed in an incubator at 37°C for 15 minutes.
The prepared ATP substrate solution was added to the reaction plate, 5 µL per well, and the final concentration of ATP was 5 µM. The reaction plate was centrifuged at 1000 rpm for 1 minute. After sealing the plate with aluminum foil, the plate was placed in an incubator and the reaction was carried out at 37°C for 90 minutes.
10 µL of ADP-glo™ reagent was added to stop the kinase reaction and consume unconsumed ATP, leaving only ADP and a very low ATP background. The reaction plate was centrifuged at 1000 rpm for 1 minute. After sealing the plate with aluminum foil, the reaction was carried out at room temperature for 60 minutes.
ADP was converted to ATP by adding 20 µL of kinase detection reagent, and luciferase and luciferin were introduced to detect ATP. The reaction plate was centrifuged at 1000 rpm for 1 minute. After sealing the plate with aluminum foil, the reaction was carried out at room temperature for 60 minutes.
The ADP-GLO luminescence signal values were read by the microplate reader PHERAstar, and the readings were analyzed.

Series [4] is described as follows: physchem. Conditions: pH 5, Solubility (µg/mL).
For series [5] the following is noted: 24 h, pH 5.
The nature of series [6]: Tissue distribution: tumor tissue concentration in OVCAR3 tumor-bearing mice. To be noted: BALB/c nude mice, 10 mpk p.o. BIDx28D; for Tumor tissue concentration (ng/g) 2 h after administration: 2 h after last administration; for Tumor tissue concentration (ng/g) 6 h after administration: 6 h after last administration.
Protocol: The cells were cultured in an incubator at 37°C and 5% CO2. The medium was changed every other day, and the cells were subcultured every 3 to 4 days after the cells had become confluent. Under sterile conditions, the in vitro cultured OVCAR3 cell suspension was taken, centrifuged, and added to adjust the cell concentration to 1 × 10^8 cells/mL, and an equal volume of Matrigel was added, and inoculated subcutaneously on the back of the right hind forelimb of mice (BALB/c nude mice, female, Beijing Vital River Laboratory Animal Technology Co., Ltd.) (0.1 mL/mouse). […] The mice were randomly divided into groups according to tumor size and weight, and the administration of the test compound was started.
The experiment was divided into a solvent control group, a positive control group, and a test group, with 5-6 mice in each group. For the test compound administration group, the test compound was mixed in 0.5% methylcellulose and administered by oral gavage twice a day. The experiment was terminated 28 days after administration, and PK plasma (EDTA-K2 anticoagulated) samples were collected (0.5 h, 1 h, 2 h, and 6 h after administration), and the mice were euthanized and tumor samples were collected 2 h and 6 h after the last administration.
Tumor concentration test method:
All tumor samples were added with pure water at a ratio of 1:3 (3 mL solvent per g tumor), and homogenized using a cryogenic homogenizer to obtain tumor sample solutions.
Standard curve preparation method:
The powder of the test compound was diluted in a gradient manner with 50% acetonitrile aqueous solution to obtain a series of working solutions. 3 µL of working solution (10, 20, 40, 100, 200, 1000, 2000, 10000, and 20000 ng/mL) was added to 57 µL of blank Balb/c nude mouse tumor sample solution to obtain calibration standard solutions of 0.5 to 1000 ng at concentrations of 0.5, 1, 2, 5, 10, 50, 100, 500, and 1000 ng/mL, respectively, in a total volume of 60 µL.
Quality control samples were prepared in the same manner as the calibration standard solutions: 3 µL of working solution (30, 60, 120, 1000, 8000, and 16000 ng/mL) was added to 57 µL of blank Balb/c nude mouse tumor sample solution to obtain 6 quality control samples with concentrations of 1.5 ng/mL, 3 ng/mL, 6 ng/mL, 50 ng/mL, 400 ng/mL, and 800 ng/mL, respectively, with a total volume of 60 µL.
30 µL of the sample (including standard solution, quality control sample, and test sample) was taken, and 200 µL of protein precipitant containing acetonitrile was added to precipitate the protein, vortexed for 30 seconds, then centrifuged at 4°C and 3900 rpm for 15 minutes, and then the supernatant was aspirated and diluted 3 times with water. 5 µL of the diluted supernatant was loaded on the LC/MS/MS system for quantitative analysis.
Series [7] in a line: TS-FeSSIF & TS-FeSSGF solubility test. To be noted: pH 5.
The nature of series [8]: Metabolic stability in human hepatocytes. Conditions: for hepatocyte CLint at 1 µM: In vitro Clint (µL/min/10^6 cells); for half-life at 1 µM: t1/2 (min).

In the case of `Cc1cc(F)c(O)c(C)c1-n1c(N)c(C(N)=O)c2cc(Br)c(C)nc21` (atropisomer, axis not shown) [Example 58.1], the pIC50 in series [1] (Homo sapiens, HCC1569, 120 h) is 7.08. In series [2] (liver microsomes), this molecule had a half-life at 1 µM of 1.16 h and a microsomal CLint at 1 µM of 19.9 µL/min/mg. Moreover, the pIC50 in series [3] is 8.51.

Regarding `Cc1c(O)cc(F)c(C)c1-n1c(N)c(C(N)=O)c2cc3c(nc21)CCO3` [Example 181], the negative logarithm of the IC50 (pIC50) in series [1] (Homo sapiens, HCC1569, 120 h) was 7.20; in series [3], 7.46.

`Cc1cc(F)c(O)c(C)c1-n1c(N)c(C(N)=O)c2cc(N3CCC3)c(C)nc21` (atropisomer, axis not shown) [Example 173.2]: the negative-log IC50 (pIC50) in series [1] (Homo sapiens, HCC1569, 120 h) is 7.19; in series [3], 8.35.

For `Cc1nc2c(cc1-c1nccs1)c(C(N)=O)c(N)n2-c1c(C)c(O)cc(F)c1C` [Example 127], the pIC50 is 7.85 in series [1] (Homo sapiens, HCC1569, 120 h) and 8.04 in series [3].

Regarding `Cc1cc2c(C(N)=O)c(N)n(-c3c(C)ccc(O)c3C)c2nc1C` (atropisomer, axis not shown) [RP-6306, reference compound], the concentration in solution in series [4] (solubility at 24 h) was 31.6 µg/mL (≈ 97.4 µM). In addition, the “Solubility” value in series [5] is on record as 33.9 µg/mL (≈ 105 µM). In series [2] (microsomes), this molecule had a half-life at 1 µM of 0.377 h and a microsomal CLint at 1 µM of 61.3 µL/min/mg. For the same molecule, in series [6], the “Tumor tissue concentration (ng/g) 2 h after administration” value was 172 ng/g and the “Tumor tissue concentration (ng/g) 6 h after administration” value is on record as 18 ng/g.

As for `Cc1cc(F)c(O)c(C)c1-n1c(N)c(C(N)=O)c2cc(Br)c(C)nc21` [Example 58, 2-Amino-5-bromo-1-(4-fluoro-3-hydroxy-2,6-dimethylphenyl)-6-methyl-1H-pyrrolo[2,3-b]pyridine-3-carboxamide], the pIC50 in series [1] (Homo sapiens, 120 h) is 7.15; in series [3], 8.45.

As to `Cc1cc(F)c(O)c(C)c1-n1c(N)c(C(N)=O)c2cc(C(C)C)c(C)nc21` (atropisomer, axis not shown) [Example 159.1], the pIC50 in series [1] (Homo sapiens, HCC1569, 120 h) was 7.51; in series [3], 8.35.

Consider `Cc1c(O)cc(F)c(C)c1-n1c(N)c(C(N)=O)c2cc3ccccc3nc21` [Example 191], for which the negative-log IC50 (pIC50) is 7.80 in series [1] (Homo sapiens, HCC1569, 120 h) and 8.55 in series [3].

Turning to `Cc1c(O)cc(F)c(C)c1-n1c(N)c(C(N)=O)c2cc3c(nc21)CCC3` [Example 179], the pIC50 in series [1] (Homo sapiens, HCC1569, 120 h) is 7.66; in series [3], 8.50.

For the molecule `Cc1c(O)cc(F)c(C)c1-n1c(N)c(C(N)=O)c2cc(C3CC3)cnc21` [Example 80], the pIC50 in series [1] (Homo sapiens, HCC1569, 120 h) was 7.80; in series [3] it was 8.45.

Regarding `Cc1nc2c(cc1C1CC1)c(C(N)=O)c(N)n2-c1c(C)c(O)cc(F)c1C` [Example 110], the pIC50 in series [1] (Homo sapiens, HCC1569, 120 h) is 7.82; in series [3], 8.24.

Regarding `Cc1cc2c(C(N)=O)c(N)n(-c3c(C)c(O)cc(F)c3C)c2nc1-c1cccnc1` [Example 123], the pIC50 in series [1] (Homo sapiens, HCC1569, 120 h) was 7.24; in series [3] it was 8.19.

Regarding `C=C(C)c1cnc2c(c1)c(C(N)=O)c(N)n2-c1c(C)c(O)cc(F)c1C` (atropisomer, axis not shown) [Example 133.1], the pIC50 in series [1] is 7.92; in series [3] it was 8.61.

Regarding `Cc1cc(F)c(O)c(C)c1-n1c(N)c(C(N)=O)c2cc(C3CC3)c(C)nc21` (atropisomer, axis not shown) [Example 141], the pIC50 in series [1] (Homo sapiens, HCC1569, 120 h) was 7.12; in series [3] it was 8.24.

With `Cc1cc(F)c(O)c(C)c1-n1c(N)c(C(N)=O)c2cc(C(F)(F)F)c(C)nc21` (atropisomer, axis not shown) [Example 59.1], the pIC50 was 7.25 in series [1] (Homo sapiens, HCC1569, 120 h) and 8.35 in series [3]. The results for the solubility at 24 h in series [7] (ts-fessgf) and in series [7] (ts-fessif) were 253 µg/mL (≈ 639 µM) and 352 µg/mL (≈ 888 µM), respectively. In addition, the half-life at 1 µM in series [2] (liver microsomes) turned out to be 3.08 h; in series [8] (Female), 2.3 h; in series [8] (Male) it was 3.3 h. In series [2] (liver microsomes), the microsomal CLint at 1 µM was < 7.5 µL/min/mg. The intrinsic metabolic clearance (hepatocyte CLint) at 1 µM in series [8] (Female) came out at 10 µL/min/1e6 cells; in series [8] (Male), 7 µL/min/1e6 cells. Also, the “Tumor tissue concentration (ng/g) 2 h after administration” value in series [6] is 633 ng/g. In addition, the “Tumor tissue concentration (ng/g) 6 h after administration” value in series [6] came out at 231 ng/g.

As to `Cc1nc2c(cc1C(F)(F)F)c(C(N)=O)c(N)n2-c1c(C)c(O)cc(F)c1C` [Example 120, 2-amino-1-(3-fluoro-5-hydroxy-2,6-dimethylphenyl)-6-methyl-5-(trifluoromethyl)-1H-pyrrolo[2,3-b]pyridine-3-carboxamide], the pIC50 in series [1] (Homo sapiens, 120 h) is 7.85; in series [3] it was 8.04.

In the case of `Cc1c(O)cc(F)c(C)c1-n1c(N)c(C(N)=O)c2cc(Br)cnc21` [Example 99], the pIC50 in series [1] (Homo sapiens, HCC1569, 120 h) was 7.40; in series [3], 8.01.

With `Cc1nc2c(cc1-c1cccnc1)c(C(N)=O)c(N)n2-c1c(C)c(O)cc(F)c1C` [Example 131], the negative-log IC50 (pIC50) was 7.64 in series [1] (Homo sapiens, HCC1569, 120 h) and 7.95 in series [3].

For the molecule `Cc1c(O)cc(F)c(C)c1-n1c(N)c(C(N)=O)c2cc(C(C)C)cnc21` (racemic) [Example 113], the pIC50 in series [1] (Homo sapiens, HCC1569, 120 h) is 7.74; in series [3] it was 8.08.

With `C=C(C)c1cnc2c(c1)c(C(N)=O)c(N)n2-c1c(C)c(O)cc(F)c1C` (atropisomer, axis not shown) [Example 133], the pIC50 in series [1] (Homo sapiens, HCC1569, 120 h) was 7.74; in series [3], 8.18.

As for `Cc1c(O)cc(F)c(C)c1-n1c(N)c(C(N)=O)c2cc(C(C)C)cnc21` (atropisomer, axis not shown) [Example 113.2], the pIC50 is 8.52 in series [1] (Homo sapiens, HCC1569, 120 h) and 8.39 in series [3].

On to `Cc1nc2c(cc1N1CCOCC1)c(C(N)=O)c(N)n2-c1c(C)c(O)cc(F)c1C` [Example 134], for which the pIC50 in series [1] (Homo sapiens, HCC1569, 120 h) was 7.25; in series [3], 7.47.

For the molecule `Cc1nc2c(cc1Br)c(C(N)=O)c(N)n2-c1c(C)c(O)cc(F)c1C` (racemic) [Example 104], the pIC50 in series [1] (Homo sapiens, HCC1569, 120 h) is 7.82; in series [3] it was 8.49.

With `Cc1cc2c(C(N)=O)c(N)n(-c3c(C)c(O)cc(F)c3C)c2nc1C` [Example 20, 2-amino-1-(3-fluoro-5-hydroxy-2,6-dimethylphenyl)-5,6-dimethyl-1H-pyrrolo[2,3-b]pyridine-3-carboxamide], the pIC50 in series [1] (Homo sapiens, HCC1569, 120 h) was 7.40; in series [3] it was 7.82.

Consider `Cc1cc(F)c(O)c(C)c1-n1c(N)c(C(N)=O)c2cc(C(C)C)c(C)nc21` (racemic) [Example 159], for which the pIC50 was 7.25 in series [1] (Homo sapiens, HCC1569, 120 h) and 7.82 in series [3].

As usually defined, the pIC50 is the IC50 on a negative log10 scale, so that one unit is a factor of ten. A word on the half-life: it is the time in which the quantity being followed falls by half. The microsomal CLint is a measure of how fast metabolising enzymes remove a compound, apart from limits set by blood flow. The low end stands for slow turnover, the high end for rapid turnover. By solubility is commonly meant the concentration that dissolves in the medium under given conditions. The Solubility is the dissolved amount per volume that the medium holds. High values mean much dissolved substance, low ones little dissolved substance. What is called hepatocyte CLint is a measure of how fast metabolising enzymes remove a compound, apart from limits set by blood flow.

These data come from patent publication EP4624471A1, “PKMYT1 INHIBITOR, PREPARATION METHOD THEREFOR, AND PHARMACEUTICAL COMPOSITION AND USE THEREOF” (Shanghai Qilu Pharmaceutical Research and Development …, priority 2022, dated 2024).
